Test results reported in patent US20240182945A1, “PRODUCTS FOR REGULATION OF EUKARYOTIC AND MICROBIAL CELLS GROWTH” (priority 2021, published 2024).
Starred links: 1 amine or outer side, 2 acyl side, 3 side chain; linkers in the order of their positions; H or OH if unused. Positions of bridges follow the written chain, without caps; N, C: chain ends. Non-standard residues stand in square brackets, D forms with d. Residues, ends and D or L forms follow the SMILES beside them. *: point of attachment. hTyr(3S-OH,4S-OH,3'-OSO3H) = N[C@H](C(=O)O)[C@H](O)[C@@H](O)c1ccc(O)c(OS(=O)(=O)O)c1; pTerphenylCO(4''-OnC5H11) = CCCCCOc1ccc(-c2ccc(-c3ccc(C(=O)*)cc3)cc2)cc1; Orn(4R-OH,5R-OH) = O=C([C@H](C[C@@H](O)[C@@H](O)N[*:3])N[*:1])[*:2]; hTyr(3S-OH,4S-OH) = N[C@H](C(=O)O)[C@H](O)[C@@H](O)c1ccc(O)cc1; Pro(3S-OH,4S-Me) = C[C@H]1CN[C@H](C(=O)O)[C@H]1O; X1 = CCCCCOc1ccc(-c2cc(-c3ccc(C(=O)*)cc3)no2)cc1; Gln(3R-OH) = NC(=O)C[C@@H](O)[C@H](N)C(=O)O; Hyp = O=C(O)[C@@H]1C[C@@H](O)CN1

System: C. albicans, non-albicans Candida spp. Aspergillus spp. in oral swabs from patients with oral candidiasis
Assay: Signs of fungal growth on 12 well plate test system supplemented with antifungal antibiotics
Type: cell-based
Conditions: naked eye examination, samples resistant to the antibiotic
Description: Oral swabs (n=6) from patients with confirmed oral candidiasis caused by C. albicans, non-albicans Candida spp. Aspergillus spp., were dissolved with PBS and 0.1 uL were plated on 12 well plate test system filled with Mixed Medium 1 (see above), Mixed Medium 2 (Sabouraud agar+Potato Dextrose Agar+vitamins B12+B7) (MM2), Sabouraud agar (SA), Potato Dextrose Agar (PDA), Sabouraud's Heart Infusion (SABHI) agar. 11 wells were filled with media supplemented with antibiotics (taken at mean concentration of each antibiotic achieved in lungs at different timpoints post drug administration)—Nystatin, Amphotericin B, Clotrimazole, Fluconazole, Isavuconazole, Terbinafin, Posaconazole, Voriconazole, Anidulafungin, Caspofungin, Micafungin. One well was antibiotic free.
Plates was incubated at 30 C and the analysis of the presence/absence of microbial growth was monitored every 15 minutes from […] to 5 h, then hourly from 5 h to 8 h and then at 18 and 24 h post plating with a naked eye.
Three methods (algorithms) how to analyze fungal growth were used.
Method (Algorithm) #1. Lab technician, analyzed the appearance of fungal growth by comparing the signs of fungal growth in each well supplemented with antibiotic(s) at certain timepoint, with the signs of funal growth in the same well at previous time point(s).
Method (Algorithm)#2. Lab technician analyzed the appearance of fungal growth by comparing the signs of fungal growth in each well supplemented with antibiotic(s) with fungal growth in antibiotic-free control
Method (Algorithm) #3. Lab technician analyzed the absence of fungal growth in the wells in fixed time period of 3.5 h; 5 h and 24 h.

[1] = Method (Algorithm) #1, MM1 medium
[2] = Method (Algorithm) #1, MM2 medium
[3] = Method (Algorithm) #1, PDA medium
[4] = Method (Algorithm) #1, SA (Sabouraud agar)
[5] = Method (Algorithm) #1, SABHI medium
[6] = Method (Algorithm) #2, MM1 medium
[7] = Method (Algorithm) #2, MM2 medium
[8] = Method (Algorithm) #2, PDA medium
[9] = Method (Algorithm) #2, SA (Sabouraud agar)
[10] = Method (Algorithm) #2, SABHI medium

Row | SMILES | Mean hour at which fungal growth became visible on the wells supplemented with a certain antibiotic [1] [h] | Mean hour at which fungal growth became visible on the wells supplemented with a certain antibiotic [2] [h] | Mean hour at which fungal growth became visible on the wells supplemented with a certain antibiotic [3] [h] | Mean hour at which fungal growth became visible on the wells supplemented with a certain antibiotic [4] [h] | Mean hour at which fungal growth became visible on the wells supplemented with a certain antibiotic [5] [h] | Mean hour at which fungal growth became visible on the wells supplemented with a certain antibiotic [6] [h] | Mean hour at which fungal growth became visible on the wells supplemented with a certain antibiotic [7] [h] | Mean hour at which fungal growth became visible on the wells supplemented with a certain antibiotic [8] [h] | Mean hour at which fungal growth became visible on the wells supplemented with a certain antibiotic [9] [h] | Mean hour at which fungal growth became visible on the wells supplemented with a certain antibiotic [10] [h]
1 | OC(Cn1cncn1)(Cn1cncn1)c1ccc(F)cc1F [Fluconazole] | 4 | 4.5 | 5 | 6.5 | 7.5 | 5.5 | 5.5 | 6.5 | 7 | 8
2 | C[C@@H]1[C@H](O)[C@@H](C)/C=C/C=C/C=C/C=C/C=C/C=C/C=C/[C@H](O[C@@H]2O[C@H](C)[C@@H](O)[C@H](N)[C@@H]2O)C[C@@H]2O[C@](O)(C[C@@H](O)C[C@@H](O)[C@H](O)CC[C@@H](O)C[C@@H](O)CC(=O)O[C@H]1C)C[C@H](O)[C@H]2C(=O)O [Amphotericin B] | 3 | 5 | 4.5 | 6.5 | 6 | 5 | 5 | 7.5 | 7 | 8
3 | CN(C/C=C/C#CC(C)(C)C)Cc1cccc2ccccc12 [Terbinafin] | 4.5 | 5 | 5 | 5 | 5 | 4.5 | 5.5 | 8 | 6.5 | 6.5
4 | CCCCCOc1ccc(-c2ccc(-c3ccc(C(=O)N[C@H]4C[C@@H](O)[C@@H](O)NC(=O)[C@@H]5[C@@H](O)[C@@H](C)CN5C(=O)[C@H]([C@@H](C)O)NC(=O)[C@H]([C@H](O)[C@@H](O)c5ccc(O)cc5)NC(=O)[C@@H]5C[C@@H](O)CN5C(=O)[C@H]([C@@H](C)O)NC4=O)cc3)cc2)cc1 [Anidulafungin] ({pTerphenylCO(4''-OnC5H11)}-[Orn(4R-OH,5R-OH)]T[Hyp][hTyr(3S-OH,4S-OH)]T[Pro(3S-OH,4S-Me)]; lactam 1-C) | 4 | 5 | 6.5 | 5.5 | 6.5 | 5.5 | 4.5 | 7.5 | 6.5 | 8.5
5 | C[C@@H](c1ncncc1F)[C@](O)(Cn1cncn1)c1ccc(F)cc1F [Voriconazole] | 4 | 4.5 | 5.5 | 4.5 | 5.5 | 4.5 | 4.5 | 6.5 | 8 | 7
6 | Clc1ccccc1C(c1ccccc1)(c1ccccc1)n1ccnc1 [Clotrimazole] | 3.5 | 4.5 | 7.5 | 5 | 6.5 | 4.5 | 6.5 | 8.5 | 7.5 | 6.5
7 | CCCCCOc1ccc(-c2cc(-c3ccc(C(=O)N[C@H]4C[C@@H](O)[C@@H](O)NC(=O)[C@@H]5[C@@H](O)[C@@H](C)CN5C(=O)[C@H]([C@H](O)CC(N)=O)NC(=O)[C@H]([C@H](O)[C@@H](O)c5ccc(O)c(OS(=O)(=O)O)c5)NC(=O)[C@@H]5C[C@@H](O)CN5C(=O)[C@H]([C@@H](C)O)NC4=O)cc3)no2)cc1 [Micafungin] (X1-[Orn(4R-OH,5R-OH)]T[Hyp][hTyr(3S-OH,4S-OH,3'-OSO3H)][Gln(3R-OH)][Pro(3S-OH,4S-Me)]; lactam 1-C) | 4.5 | 5 | 6 | 6 | 5 | 4.5 | 5.5 | 7.5 | 8 | 6.5
8 | CC[C@@H]([C@H](C)O)n1ncn(-c2ccc(N3CCN(c4ccc(OC[C@@H]5CO[C@@](Cn6cncn6)(c6ccc(F)cc6F)C5)cc4)CC3)cc2)c1=O [Posaconazole] | 3.5 | 4.5 | 5 | 5 | 5.5 | 4.5 | 5 | 8.5 | 7 | 7
9 | CC[C@H](C)C[C@H](C)CCCCCCCCC(=O)N[C@H]1C[C@@H](O)[C@@H](NCCN)NC(=O)[C@@H]2[C@@H](O)CCN2C(=O)[C@H]([C@H](O)CCN)NC(=O)[C@H]([C@H](O)[C@@H](O)c2ccc(O)cc2)NC(=O)[C@@H]2C[C@@H](O)CN2C(=O)[C@H]([C@@H](C)O)NC1=O [Caspofungin] | 3.5 | 5 | 6 | 5.5 | 7 | 6 | 5.5 | 8 | 7.5 | 8.5
